Reference: the PolyMetriX glass transition set
± gives the standard deviation of the reports.

Row | SMILES | glass transition temperature [°C]
1 | */C=C(\F)C(F)(F)C* (repeat unit) | -35.00
2 | *CCCCCCCCCCCCNC(=O)c1ccc(C(=O)N*)c(Sc2ccccc2)c1 (repeat unit) | 92.00
3 | *OP(=O)(Oc1ccc(Cl)cc1)Oc1ccc(C(C)(C)c2ccc(*)cc2)cc1 (repeat unit) | 71.00
4 | *Oc1ccc(Oc2ccc(P(C)(=O)c3ccc(*)cc3)cc2)cc1 (repeat unit) | 213.00
5 | *C#Cc1cc(C(C)(C)C)cc2c3cc(C(C)(C)C)cc(*)c3n(CCCCCCCCCCCCCCCC)c12 (repeat unit) | 80.00
6 | *CC(*)C(=O)Oc1c(Cl)c(Cl)c(Cl)c(Cl)c1Cl (repeat unit) | 145.00
7 | *c1cccc(P(=O)(c2ccccc2)c2cccc(-n3c(=O)c4c(-c5cc(C(F)(F)F)cc(C(F)(F)F)c5)c5c(=O)n(*)c(=O)c5c(-c5cc(C(F)(F)F)cc(C(F)(F)F)c5)c4c3=O)c2)c1 (repeat unit) | 324.00
8 | *c1ccc(-c2cc(CCCCCCCC)c(-c3ccc(-c4ccc(-c5sc(-c6ccc([Si](CCCC)(CCCC)[Si](*)(CCCC)CCCC)s6)cc5CCCCCCCC)s4)s3)s2)s1 (repeat unit) | -10.00
9 | *Oc1ccc(CC(C#N)(C#N)Cc2ccc(*)cc2)cc1 (repeat unit) | 147.00
10 | *c1ccc2c(c1)C(=O)N(c1ccc(OCCN(CCOc3ccc(N4C(=O)c5ccc(C(*)(C(F)(F)F)C(F)(F)F)cc5C4=O)cc3)c3ccc(C(C#N)=C(C#N)C#N)cc3)cc1)C2=O (repeat unit) | 218.00
11 | *CCCCCCCCCCCCCCNC(=O)CCCCCCCCCCCCCCCCC(=O)N* (repeat unit) | 48.00
12 | *C[Si](*)(CCCCC)CCCCC (repeat unit) | -55.00
13 | *O[Si](C)(C)CC[Si](*)(C)C (repeat unit) | -88.00
14 | *CC(*)C(=O)Oc1ccc(Cl)cc1 (repeat unit) | 330.00
15 | *CCOC(=O)C1=CCCCC(N2CCCC2)=C1C(=O)O* (repeat unit) | 352.50
16 | *CC(O)COc1ccc(C(C)(C)c2ccc(O*)c(Cl)c2)cc1Cl (repeat unit) | 85.00
17 | *Nc1ccc(*)cc1OCCCCCCCCCC (repeat unit) | 77.00
18 | *CC(*)C(=O)OC(CC)CC (repeat unit) | -6.00
19 | *CCCCCCOC(=O)C(=O)O* (repeat unit) | 66.50
20 | *OP(=O)(Oc1ccccc1)Oc1ccc(S(=O)(=O)c2ccc(*)cc2)cc1 (repeat unit) | 100.50
21 | *C1C2CC(C1*)C([Si](C)(C)C)C2 (repeat unit) | 303.00
22 | *c1cc(CCCCCCO[Si](C)(C)C)c(*)s1 (repeat unit) | 10.00
23 | *Oc1ccc(C(CC)c2ccc(OC(*)=S)cc2)cc1 (repeat unit) | 104.00
24 | *CC(*)OC(=O)OCC(Cl)(Cl)Cl (repeat unit) | 74.00
25 | *CC(*)C(=O)OC12CC3CC(CC(C3)C1)C2 (repeat unit) | 183.00
26 | *CCCCCCNC(=O)CCc1ccc(C(C)CC(=O)N*)cc1 (repeat unit) | 77.00
27 | *Nc1ccc(NC(=O)CCCCCCCC(*)=O)cc1 (repeat unit) | 130.00
28 | *O/C(=C/CC)C(CC)C(*)=O (repeat unit) | -15.90

The next lines start with the values.

Row | glass transition temperature [°C] | SMILES
29 | 193.00 ± 8.5 | *c1cccc(Oc2cccc(Oc3cccc(N4C(=O)c5ccc(Oc6ccc7c(c6)C(=O)N(*)C7=O)cc5C4=O)c3)c2)c1 (repeat unit)
30 | 232.00 | *CCC(=O)Nc1ccc(Oc2ccc(NC(=O)CCN3C(=O)c4ccc(C(=O)c5ccc6c(c5)C(=O)N(*)C6=O)cc4C3=O)cc2)cc1 (repeat unit)
31 | 270.00 | *c1cccc(-c2nc3cc(Oc4ccc5nc(-c6ccccc6)c(*)nc5c4)ccc3nc2-c2ccccc2)c1 (repeat unit)
32 | 144.00 | *Oc1ccc(Oc2ccc(C(=O)c3cccc(NC(=O)CCCCCCCCC(=O)Nc4cccc(C(=O)c5ccc(*)cc5)c4)c3)cc2)cc1 (repeat unit)
33 | 150.00 | *Oc1ccc(C2(c3ccc(OC(=O)CCCCCCCC(*)=O)cc3)c3ccccc3-c3ccccc32)cc1 (repeat unit)
34 | 155.00 | *C(=O)c1ccc2c(c1)C(=O)N(c1cccc(OCCOCCOc3cccc(N4C(=O)c5ccc(*)cc5C4=O)c3)c1)C2=O (repeat unit)
35 | 94.00 | *c1ccc2oc(-c3cc(OCCCCCCCCCC)c(-c4nc5cc(C(*)(C(F)(F)F)C(F)(F)F)ccc5o4)cc3OCCCCCCCCCC)nc2c1 (repeat unit)
36 | 58.00 | *C(=O)OCCCCCCCCCCOC(=O)c1ccc(N2C(=O)c3ccc(*)cc3C2=O)cc1 (repeat unit)
37 | 232.00 | *C(=O)Oc1ccc(-c2ccc(OC(=O)c3ccc4c(c3)C(=O)N(c3ccc(Oc5ccc(N6C(=O)c7ccc(*)cc7C6=O)cc5)cc3)C4=O)cc2)cc1 (repeat unit)
38 | 311.00 | *Nc1ccc(C(C)(C)c2ccc(NC(=O)c3cc(C(*)=O)cc(N4C(=O)C5C6CCC(C6)C5C4=O)c3)cc2)cc1 (repeat unit)
39 | -22.00 | *CCCCCCOC(=O)OCCCCCCCCCCCCOC(=O)OCCCCCCOc1ccc(Oc2ccc(O*)cc2)cc1 (repeat unit)
40 | 95.00 | *CC(*)(C)C(=O)OCCN(CC)c1ccc(/N=N/c2ccc(OC)cc2)c(C)c1 (repeat unit)
41 | 264.00 | *Oc1ccc(S(=O)(=O)c2ccc(-c3ccc(-c4ccc(S(=O)(=O)c5ccc(Oc6ccc(-c7ccc(*)cc7)cc6)cc5)cc4)cc3)cc2)cc1 (repeat unit)
42 | 278.00 | *c1ccc(-c2ccc(-c3nnc(-c4ccc([Si](c5ccccc5)(c5ccccc5)c5ccc(-c6nnc(*)o6)cc5)cc4)o3)cc2)cc1 (repeat unit)
43 | 218.00 | *CN1C(=O)c2ccc(C(c3ccc4c(c3)C(=O)N(Cc3nc5ccc(Cc6ccc7nc(*)oc(=O)c7c6)cc5c(=O)o3)C4=O)(C(F)(F)F)C(F)(F)F)cc2C1=O (repeat unit)
44 | 367.43 ± 3.4 | *c1ccc(-c2nc3cc(-c4ccc5nc(-c6ccccc6)c(*)nc5c4)ccc3nc2-c2ccccc2)cc1 (repeat unit) [poly(phenylquinoxaline)]
45 | 282.00 | *c1ccc(OC(=O)c2ccc(C(=O)Oc3ccc(C4(*)c5ccccc5C(=O)N4C)cc3)cc2)cc1 (repeat unit)
46 | 195.00 | *C(=O)c1ccc(Oc2ccc(C3(c4ccc(Oc5ccc(*)s5)cc4)c4ccccc4-c4ccccc43)cc2)cc1 (repeat unit)
47 | 89.31 | *CCCCC(=O)Oc1ccc(OC(=O)c2ccc3c(c2)C(=O)N(*)C3=O)cc1 (repeat unit)

Row | glass transition temperature [°C] | SMILES
48 | 267.00 | *Oc1ccc(-c2ccc(OC(=O)c3ccc(C(*)=O)cc3)cc2)cc1 (repeat unit)
49 | 46.00 | *Oc1ccc(CC(NC(=O)Cc2ccc(OC(=O)COCC(*)=O)cc2)C(=O)OCCCCCC)cc1 (repeat unit)
50 | 56.50 | *Oc1ccc(CC(NC(=O)CCc2ccc(OC(=O)CCCCC(*)=O)cc2)C(=O)OC(C)C)cc1 (repeat unit)
51 | 395.00 | *c1ccc(C)c(N2C(=O)c3ccc(-c4ccc5c(c4)C(=O)N(*)C5=O)cc3C2=O)c1 (repeat unit)
52 | 234.50 | *c1ccc(Oc2ccc(-n3c(=O)c4c(Oc5ccc(OCCCCCCCC)cc5)c5c(=O)n(*)c(=O)c5c(Oc5ccc(OCCCCCCCC)cc5)c4c3=O)cc2)cc1 (repeat unit)
53 | 323.8 ± 24 | *c1ccc(-c2ccc(N3C(=O)c4ccc(-c5ccc6c(c5)C(=O)N(*)C6=O)cc4C3=O)cc2C(F)(F)F)c(C(F)(F)F)c1 (repeat unit)
54 | 167.00 | *c1ccc(Oc2ccc(S(=O)(=O)c3ccc(Oc4ccc(-c5c6c(c(*)c7ccccc57)C(=O)N(CCCCCCCCCCCC)C6=O)cc4)cc3)cc2)cc1 (repeat unit)
55 | 225.00 | *Oc1ccc(Oc2ccc(C(=O)c3ccc(*)cc3)cc2)cc1S(=O)(=O)O (repeat unit)
56 | 70.00 | *CCCOCCCCOCCCN1C(=O)c2ccc(C(=O)Oc3ccc(-c4ccc(OC(=O)c5ccc6c(c5)C(=O)N(*)C6=O)cc4)cc3)cc2C1=O (repeat unit)
57 | 215.00 | *c1ccc(Oc2ccc(N3C(=O)c4ccc(Oc5ccc(C(C)(C)c6ccc(Oc7ccc8c(c7)C(=O)N(*)C8=O)cc6)cc5)cc4C3=O)cc2)cc1 (repeat unit)
58 | 179.00 | *=Nc1cccc(/N=C(\c2ccccc2)c2ccc(C(=*)c3ccccc3)cc2)c1 (repeat unit)
59 | 165.00 | *Oc1ccc(C(c2ccc(OC(*)=O)cc2)C(Cl)Cl)cc1 (repeat unit)
60 | 333.00 | *c1ccc(-c2nc3cc(-c4ccc5nc(*)c(-c6ccc7ccccc7c6)nc5c4)ccc3nc2-c2ccc3ccccc3c2)cc1 (repeat unit)
61 | 194.00 | *Oc1ccc(C(C)(C)c2ccc(OC(=O)c3ccc(C(=O)c4ccc(C(*)=O)cc4)cc3)cc2)cc1 (repeat unit)
62 | 225.00 | *C(=O)Oc1ccc(C23CC4CC(CC(C4)C2)C3)c(OC(=O)c2ccc3c(c2)C(=O)N(c2ccc(-c4ccc(N5C(=O)c6ccc(*)cc6C5=O)cc4C)c(C)c2)C3=O)c1 (repeat unit)
63 | 252.20 | *c1cc(Oc2c(C)cc(-c3cc(C)c(Oc4cc(N5C(=O)c6ccc(Oc7ccc8c(c7)C(=O)N(*)C8=O)cc6C5=O)cc(C(F)(F)F)c4)c(C)c3)cc2C)cc(C(F)(F)F)c1 (repeat unit)
64 | -20.00 | *CCCCCCOC(=O)OCCCCCCCCCOC(=O)OCCCCCCOc1ccc(Oc2ccc(O*)cc2)cc1 (repeat unit)
65 | 210.00 | *CCN(CCN1C(=O)c2ccc(C(c3ccc4c(c3)C(=O)N(*)C4=O)(C(F)(F)F)C(F)(F)F)cc2C1=O)c1ccc(/N=N/c2ccc([N+](=O)[O-])cc2)cc1 (repeat unit)
